For 19 compounds, IC50 results are on record in patent US20250154138A1, “Small Molecule IL-17A Modulators” (BeiGene, Ltd., priority 2022, published 2025).

The target of experiment [1] is human IL-17A / human IL-17RA (Homo sapiens (Human), UniProt Q16552). In words: Human IL-17A biochemical assay (HTRF, blocking of IL-17A binding to IL-17RA). The settings on record: 0.4 nM IL-17A, 0.3 nM IL-17RA, max compound concentration 10 uM. The essentials:
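Recombinant human IL-17A (0.4 nM) was pre-incubated with compound (top 10 uM, 2.7-fold, 10 points) for 3 h at room temperature in 20 mM HEPES pH 7.5, 50 mM NaCl, 0.1% BSA, 0.2 mM DTT, 0.005% Tween 20. IL-17RA (0.3 nM) was then added for 1 h, followed by anti-6His Tb and anti-human IgG-XL665 detection for 1 h; IC50 from four-parameter fit.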

In experiment [2] the test system is IL-17-induced GROα secretion from HT-29 cells. Put plainly: GROα release assay in human colorectal adenocarcinoma epithelial cell (HT-29, ELISA). The settings on record: Homo sapiens, HT-29, 48 h, 10 ng/mL IL-17A, highest concentration 10 μM, read-out: Cellular assay HT29 cell/CXCL1 IC50. It is filed as cell-based. The essentials: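 HT-29 cells were exposed 48 h at 37°C to IL-17A (final 10 ng/mL) preincubated 15 min with compound (4-fold dilutions, top 10 μM). Secreted GROα was quantified by ELISA against a standard curve, and IC50 obtained by four-parameter fitting.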
In general terms: In an ELISA, binding on a coated surface is turned into a signal by an enzyme label.

Chain of human IL-17A / human IL-17RA (Q16552 24-155): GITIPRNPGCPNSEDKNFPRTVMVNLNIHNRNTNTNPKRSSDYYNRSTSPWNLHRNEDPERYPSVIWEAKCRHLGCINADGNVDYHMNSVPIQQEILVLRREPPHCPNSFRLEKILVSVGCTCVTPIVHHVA

Consider `Cc1nonc1C(=O)N[C@H](C(=O)Nc1ccc2c(c1)CC(C(=O)Nc1cccc(Cl)c1)(N1CC3(CC3)CNC1=O)C2)C1CCC(F)(F)CC1` (stereo partly drawn) [Example 220, N-((1S)-2-((2-((3-chlorophenyl)carbamoyl)-2-(6-oxo-5,7-diazaspiro[2.5]octan-5-yl)-2,3-dihydro-1H-inden-5-yl)amino)-1-(4,4-difluorocyclohexyl)-2-oxoethyl)-4-methyl-1,2,5-oxadiazole-3-carboxamide], for which the IC50 in experiment [1] is 169 nM; in experiment [2], 80.6 nM.
Taken in the same sequence, the figures for `CNC(=O)C1(N2C[C@@H](C(C)C)NC2=O)Cc2ccc(NC(=O)C(NC(=O)c3ccnn3C)C3CCc4c(Cl)cccc4C3)cc2C1` (stereo partly drawn) [Example 201, N-(1-(5-chloro-1,2,3,4-tetrahydronaphthalen-2-yl)-2-((2-((R)-4-isopropyl-2-oxoimidazolidin-1-yl)-2-(methylcarbamoyl)-2,3-dihydro-1H-inden-5-yl)amino)-2-oxoethyl)-1-methyl-1H-pyrazole-5-carboxamide] were 6.5 nM and 39.5 nM.
Taken in the same sequence, the figures for `CC(C)n1nccc1C(=O)N[C@H](C(=O)Nc1ccc2c(c1)OC(CN1C[C@@H](C(F)(F)F)NC1=O)C2)C(C1CC1)C1CC1` (stereo partly drawn) [Example 256, N-((2S)-1,1-dicyclopropyl-3-oxo-3-((2-(((S)-2-oxo-4-(trifluoromethyl)imidazolidin-1-yl)methyl)-2,3-dihydrobenzofuran-6-yl)amino)propan-2-yl)-1-isopropyl-1H-pyrazole-5-carboxamide] were 50.2 nM and 82 nM.
Taken in the same sequence, the figures for `Cc1nonc1C(=O)NC(C(=O)Nc1ccc2c(c1)CC(N1C[C@@H](C(F)(F)F)NC1=O)C2)C1CCc2cc(Cl)ccc2C1` (stereo partly drawn) [Example 208, N-(1-(6-chloro-1,2,3,4-tetrahydronaphthalen-2-yl)-2-oxo-2-((2-((S)-2-oxo-4-(trifluoromethyl)imidazolidin-1-yl)-2,3-dihydro-1H-inden-5-yl)amino)ethyl)-4-methyl-1,2,5-oxadiazole-3-carboxamide] were 718 nM and 2170 nM.
Regarding `CNC(=O)C1(N2C[C@@H](C(C)C)NC2=O)Cc2ccc(NC(=O)[C@@H](NC(=O)c3nonc3C)C3CCCCC3)cc2C1` (stereo partly drawn) [Example 40, N-((1S)-1-cyclohexyl-2-((2-((R)-4-isopropyl-2-oxoimidazolidin-1-yl)-2-(methylcarbamoyl)-2,3-dihydro-1H-inden-5-yl)amino)-2-oxoethyl)-4-methyl-1,2,5-oxadiazole-3-carboxamide], the IC50 was determined as 25 nM in experiment [1] and 143 nM in experiment [2].
As for `Cc1nonc1C(=O)N[C@H](C(=O)Nc1ccc2c(c1)CC(C(=O)Nc1ccccc1Cl)(N1C[C@@H](C(C)C)NC1=O)C2)C(C1CC1)C1CC1` (stereo partly drawn) [Example 263, N-((2S)-1-((2-((2-chlorophenyl)carbamoyl)-2-((R)-4-isopropyl-2-oxoimidazolidin-1-yl)-2,3-dihydro-1H-inden-5-yl)amino)-3,3-dicyclopropyl-1-oxopropan-2-yl)-4-methyl-1,2,5-oxadiazole-3-carboxamide], the IC50 in experiment [1] was found to be 97.1 nM; in experiment [2] it was 447 nM.
The corresponding values for `CNC(=O)C1(N2CC(C3CC3)CNC2=O)Cc2ccc(NC(=O)[C@@H](NC(=O)c3ccnn3C)C3CCCCC3)cc2C1` (stereo partly drawn) [Example 94, N-((1S)-1-cyclohexyl-2-((2-(5-cyclopropyl-2-oxotetrahydropyrimidin-1(2H)-yl)-2-(methylcarbamoyl)-2,3-dihydro-1H-inden-5-yl)amino)-2-oxoethyl)-1-methyl-1H-pyrazole-5-carboxamide] are 40 nM and 118 nM.
With `CCc1ccccc1NC(=O)C1(N2C[C@@H](C(C)C)NC2=O)Cc2ccc(NC(=O)[C@@H](NC(=O)c3nonc3C)C(C3CC3)C3CC3)cc2C1` (stereo partly drawn) [Example 289, N-((2S)-1,1-dicyclopropyl-3-((2-((2-ethylphenyl)carbamoyl)-2-((R)-4-isopropyl-2-oxoimidazolidin-1-yl)-2,3-dihydro-1H-inden-5-yl)amino)-3-oxopropan-2-yl)-4-methyl-1,2,5-oxadiazole-3-carboxamide], the IC50 in experiment [1] amounted to 24.5 nM; in experiment [2], 81.4 nM.
Taken in the same sequence, the figures for `CNC(=O)C1(N2CC(C)NC2=O)Cc2cc(NC(=O)[C@@H](NC(=O)c3ccnn3C)C3CCCCC3)sc2C1` (stereo partly drawn) [Example 9, N-((1S)-1-cyclohexyl-2-((5-(4-methyl-2-oxoimidazolidin-1-yl)-5-(methylcarbamoyl)-5,6-dihydro-4H-cyclopenta[b]thiophen-2-yl)amino)-2-oxoethyl)-1-methyl-1H-pyrazole-5-carboxamide] were 8000 nM and over 10000 nM.
Taken in the same sequence, the figures for `CNC(=O)C1(N2C[C@@H](C(C)C)NC2=O)Cc2ccc(NC(=O)[C@@H](NC(=O)c3ccnn3C)C3CCCC3)cc2C1` (stereo partly drawn) [Example 46, N-((1S)-1-cyclopentyl-2-((2-((R)-4-isopropyl-2-oxoimidazolidin-1-yl)-2-(methylcarbamoyl)-2,3-dihydro-1H-inden-5-yl)amino)-2-oxoethyl)-1-methyl-1H-pyrazole-5-carboxamide] were 260 nM and 533 nM.
The corresponding values for `CNC(=O)C1(N2C[C@@H](C(C)C)NC2=O)Cc2ccc(NC(=O)C(NC(=O)c3ccnn3C)C3C4CC5CC(C4)CC3C5)cc2C1` (stereo partly drawn) [Example 111, N-(1-((1R,3S,5R,7R)-adamantan-2-yl)-2-((2-((R)-4-isopropyl-2-oxoimidazolidin-1-yl)-2-(methylcarbamoyl)-2,3-dihydro-1H-inden-5-yl)amino)-2-oxoethyl)-1-methyl-1H-pyrazole-5-carboxamide] are 55 nM and 112 nM.
Take `Cc1nonc1C(=O)N[C@H](C(=O)Nc1ccc2c(c1)CC(C(=O)Nc1cncs1)(N1CC3(CC3)CNC1=O)C2)C1CCC(F)(F)CC1` (stereo partly drawn) [Example 215, N-((1S)-1-(4,4-difluorocyclohexyl)-2-oxo-2-((2-(6-oxo-5,7-diazaspiro[2.5]octan-5-yl)-2-(thiazol-5-ylcarbamoyl)-2,3-dihydro-1H-inden-5-yl)amino)ethyl)-4-methyl-1,2,5-oxadiazole-3-carboxamide]: the IC50 turned out to be 33.6 nM in experiment [1] and 134 nM in experiment [2].
Take `Cc1nonc1C(=O)N[C@H](C(=O)Nc1ccc2c(c1)OC(CN1C[C@@H](C(F)(F)F)NC1=O)C2)C(C1CC1)C1CC1` (stereo partly drawn) [Example 255, N-((2S)-1,1-dicyclopropyl-3-oxo-3-((2-(((S)-2-oxo-4-(trifluoromethyl)imidazolidin-1-yl)methyl)-2,3-dihydrobenzofuran-6-yl)amino)propan-2-yl)-4-methyl-1,2,5-oxadiazole-3-carboxamide]: the figures for the IC50 in experiment [1] and in experiment [2] were 165 nM and 666 nM, respectively.
Taken in the same sequence, the figures for `CC(C)n1nccc1C(=O)N[C@H](C(=O)Nc1ccc2c(c1)CC(c1ncc(-c3ccccc3)[nH]1)(N1CC3(CC3)CNC1=O)C2)C(C1CC1)C1CC1` (stereo partly drawn) [Example 206, N-((2S)-1,1-dicyclopropyl-3-oxo-3-((2-(6-oxo-5,7-diazaspiro[2.5]octan-5-yl)-2-(5-phenyl-1H-imidazol-2-yl)-2,3-dihydro-1H-inden-5-yl)amino)propan-2-yl)-1-isopropyl-1H-pyrazole-5-carboxamide] were 270 nM and 32.5 nM.
The corresponding values for `CNC(=O)C1(N2CC(Cc3ccc(Cl)cc3)NC2=O)Cc2ccc(NC(=O)[C@@H](NC(=O)c3ccnn3C)C3CCCCC3)cc2C1` (stereo partly drawn) [Example 74, N-((1S)-2-((2-(4-(4-chlorobenzyl)-2-oxoimidazolidin-1-yl)-2-(methylcarbamoyl)-2,3-dihydro-1H-inden-5-yl)amino)-1-cyclohexyl-2-oxoethyl)-1-methyl-1H-pyrazole-5-carboxamide] are 32 nM and 342 nM.
The corresponding values for `CNC(=O)C1(N2CC3(CC3)CNC2=O)Cc2ccc(NC(=O)C(NC(=O)c3ccnn3C)C3CCC(C(C)C)CC3)cc2C1` (centres unmarked) [Example 152, N-(1-(4-isopropylcyclohexyl)-2-((2-(methylcarbamoyl)-2-(6-oxo-5,7-diazaspiro[2.5]octan-5-yl)-2,3-dihydro-1H-inden-5-yl)amino)-2-oxoethyl)-1-methyl-1H-pyrazole-5-carboxamide] are 10 nM and 31 nM.
In the case of `CCC1CCC(C(NC(=O)c2ccnn2C)C(=O)Nc2ccc3c(c2)CC(C(=O)NC)(N2CC4(CC4)CNC2=O)C3)CC1` (centres unmarked) [Example 139, N-(1-(4-ethylcyclohexyl)-2-((2-(methylcarbamoyl)-2-(6-oxo-5,7-diazaspiro[2.5]octan-5-yl)-2,3-dihydro-1H-inden-5-yl)amino)-2-oxoethyl)-1-methyl-1H-pyrazole-5-carboxamide], the IC50 in experiment [1] worked out at 10 nM; in experiment [2], 21.9 nM.
Taken in the same sequence, the figures for `Cc1nonc1C(=O)N[C@H](C(=O)Nc1ccc2c(c1)CC(c1nc3ccccc3[nH]1)(N1CC3(CC3)CNC1=O)C2)C1CCC(F)(F)CC1` (stereo partly drawn) [Example 184, N-((1S)-2-((2-(1H-benzo[d]imidazol-2-yl)-2-(6-oxo-5,7-diazaspiro[2.5]octan-5-yl)-2,3-dihydro-1H-inden-5-yl)amino)-1-(4,4-difluorocyclohexyl)-2-oxoethyl)-4-methyl-1,2,5-oxadiazole-3-carboxamide] were 151 nM and 57.3 nM.
Taken in the same sequence, the figures for `CNC(=O)C1(N2CC3(CC3)CNC2=O)Cc2ccc(NC(=O)[C@@H](NC(=O)C(F)(F)c3cccc(C#N)c3)C3CCCCC3)cc2C1` (stereo partly drawn) [Example 158, 5-((S)-2-(2-(3-cyanophenyl)-2,2-difluoroacetamido)-2-cyclohexylacetamido)-N-methyl-2-(6-oxo-5,7-diazaspiro[2.5]octan-5-yl)-2,3-dihydro-1H-indene-2-carboxamide] were 123 nM and 48.5 nM.
